Measurements as given in paper PMC4551390 (Leukemia, 2015).

Legend:
[1] = Plasma pharmacokinetics after 2-hr IV infusion; conditions: for AUC / Cmax / half-life: human, plasma, intravenous; for AUC / Cmax: Mean
[2] = tested on: relapsed and refractory CLL patients; experiment: Phase I dose escalation: clinical response and PFS; format: in vivo, human

With `CCc1cnn2c(NCc3ccc[n+]([O-])c3)cc(N3CCCC[C@H]3CCO)nc12` [Dinaciclib] the “CL, Mean” value ([1]; Day 1, 5 mg/m^2) was 26.2 L/hr/m2, the “Vd, Mean” value ([1]; Day 1, 5 mg/m^2) was 92.8 L/m2 and the “CL, Mean” value ([1]; Day 1, 7 mg/m^2) was 17.3 L/hr/m2. The “Vd, Mean” value ([1]; Day 1, 7 mg/m^2) was 66.2 L/m2, the “CL, Mean” value ([1]; Day 1, 10 mg/m^2) was 19.9 L/hr/m2 and the “Vd, Mean” value ([1]; Day 1, 10 mg/m^2) was 81.8 L/m2. For the same molecule, the “CL, Mean” value ([1]; Day 1, 14 mg/m^2) was 18.1 L/hr/m2, the “Vd, Mean” value ([1]; Day 1, 14 mg/m^2) was 74.4 L/m2 and the “CL, Mean” value ([1]; Day 1, 17 mg/m^2) was 13.2 L/hr/m2. The “Vd, Mean” value ([1]; Day 1, 17 mg/m^2) was 55.9 L/m2, the “CL, Mean” value ([1]; Day 15, 5 mg/m^2) was 16.1 L/hr/m2 and the “Vd, Mean” value ([1]; Day 15, 5 mg/m^2) was 60.3 L/m2. For the same molecule, the “CL, Mean” value ([1]; Day 15, 7 mg/m^2) was 23.8 L/hr/m2, the “Vd, Mean” value ([1]; Day 15, 7 mg/m^2) was 79.5 L/m2 and the “CL, Mean” value ([1]; Day 15, 10 mg/m^2) was 16.8 L/hr/m2. The “Vd, Mean” value ([1]; Day 15, 10 mg/m^2) was 68.4 L/m2, the “CL, Mean” value ([1]; Day 15, 14 mg/m^2) was 17 L/hr/m2 and the “Vd, Mean” value ([1]; Day 15, 14 mg/m^2) was 71.4 L/m2. For the same molecule, the “CL, Mean” value ([1]; Day 15, 17 mg/m^2) was 13.8 L/hr/m2, the “Vd, Mean” value ([1]; Day 15, 17 mg/m^2) was 58.9 L/m2 and the “increases in exposure (Cmax and AUC)” value ([1]; at 17 mg/m^2) was “greater than dose-proportional”. It also gave an AUC ([1]; 5 mg/m2, AUC(I), Day 1, 5 mg/m^2) of 191 ng·h/mL, an AUC ([1]; 5 mg/m2, AUC(I), Day 15, 5 mg/m^2) of 310 ng·h/mL and a Cmax ([1]; 5 mg/m2, Cmax, Day 1, 5 mg/m^2) of 95.4 ng/mL. It also gave a Cmax ([1]; 5 mg/m2, Cmax, Day 15, 5 mg/m^2) of 150 ng/mL, a half-life ([1]; 5 mg/m2, T1/2, Mean, Day 1, 5 mg/m^2) of 2.45 h and a half-life ([1]; 5 mg/m2, T1/2, Mean, Day 15, 5 mg/m^2) of 2.5 h. The AUC ([1]; 7 mg/m2, AUC(I), Day 1, 7 mg/m^2) was 403 ng·h/mL, the AUC ([1]; 7 mg/m2, AUC(I), Day 15, 7 mg/m^2) was 294 ng·h/mL and the Cmax ([1]; 7 mg/m2, Cmax, Day 15, 7 mg/m^2) was 157 ng/mL. For the same molecule, the half-life ([1]; 7 mg/m2, T1/2, Mean, Day 15, 7 mg/m^2) was 2.31 h, the AUC ([1]; 10 mg/m2, AUC(I), Day 1, 10 mg/m^2) was 501 ng·h/mL and the AUC ([1]; 10 mg/m2, AUC(I), Day 15, 10 mg/m^2) was 592 ng·h/mL. For the same molecule, the Cmax ([1]; 10 mg/m2, Cmax, Day 1, 10 mg/m^2) was 277 ng/mL, the Cmax ([1]; 10 mg/m2, Cmax, Day 15, 10 mg/m^2) was 299 ng/mL and the half-life ([1]; 10 mg/m2, T1/2, Mean, Day 1, 10 mg/m^2) was 2.85 h. The half-life ([1]; 10 mg/m2, T1/2, Mean, Day 15, 10 mg/m^2) was 2.82 h, the AUC ([1]; 14 mg/m2, AUC(I), Day 1, 14 mg/m^2) was 775 ng·h/mL and the AUC ([1]; 14 mg/m2, AUC(I), Day 15, 14 mg/m^2) was 827 ng·h/mL. It also gave a Cmax ([1]; 14 mg/m2, Cmax, Day 1, 14 mg/m^2) of 404 ng/mL, a Cmax ([1]; 14 mg/m2, Cmax, Day 15, 14 mg/m^2) of 428 ng/mL and a half-life ([1]; 14 mg/m2, T1/2, Mean, Day 1, 14 mg/m^2) of 2.85 h. The AUC ([1]; 17 mg/m2, AUC(I), Day 1, 17 mg/m^2) was 1290 ng·h/mL, the AUC ([1]; 17 mg/m2, AUC(I), Day 15, 17 mg/m^2) was 1260 ng·h/mL and the Cmax ([1]; 17 mg/m2, Cmax, Day 1, 17 mg/m^2) was 624 ng/mL. The Cmax ([1]; 17 mg/m2, Cmax, Day 15, 17 mg/m^2) was 634 ng/mL, the half-life ([1]; 17 mg/m2, T1/2, Mean, Day 15, 17 mg/m^2) was 2.95 h and the accumulation in plasma ([1]; weekly 2-hour IV infusion) was “did not accumulate”. The “No (%) of Responders” value ([2]; 14 mg/mg/m^2 dosing during treatment, 35 pts) was 22 (63) No (%), the response rate ([2]; 21 patients without del(17)(p13.1)) was 57% and the response rate ([2]; 25 patients with del(17)(p13.1)) was 56%. The “95% confidence interval of response rate” value ([2]; 35 patients at phase 2 dose of 14 mg/m^2) was 47–79%, the “No (%) of Responders” value ([2]; Total, 52 pts) was 28 (54) No (%) and the “overall response to therapy” value ([2]; all 52 patients, IWCLL 2008 partial responses) was 54%. For the same molecule, the complete responses ([2]; all patients) was “no complete responses”, the “patients off therapy for progression of disease” value ([2]; all patients) was 27% and the “median progression free survival” value ([2]; all patients, Kaplan-Meier estimate) was 481 days. The “median time to response (range)” value ([2]; all responders) was 85 (27–244) days, the response rate ([2]; bulky disease) was 52% and the “No (%) of Responders” value ([2]; dose level 5 mg/m^2, 4 pts) was 1 (25) No (%). For the same molecule, the “No (%) of Responders” value ([2]; dose level 10 mg/m^2, 3 pts) was 2 (67) No (%), the “No (%) of Responders” value ([2]; dose level 14 mg/m^2, 16 pts) was 11 (69) No (%) and the “No (%) of Responders” value ([2]; dose level 17 mg/m^2, 4 pts) was 1 (25) No (%). For the same molecule, the “No (%) of Responders” value ([2]; dose level 10→14 mg/m^2, 6 pts) was 4 (67) No (%), the response rate ([2]; non-bulky (< 5 cm nodes) disease) was 71% and the response rate ([2]; prior flavopiridol exposure) was 38%. The response rate ([2]; recommended phase II dose (14 mg/m^2) at the final dose, 35 patients) was 63%.
